US20210348164A1, “ENDOGENOUS CYTOPLASMIC ALU COMPLEMENTARY DNA IN AGE-RELATED MACULAR DEGENERATION” (University of Virginia Patent Foundation, priority 2018, published 2021)
“Also recorded” adds a separate entry of the source.

Tests used:
[1] = system: Alu RNA-induced RPE degeneration; assay: Alu RNA-induced RPE degeneration in wild-type mice (fundus photography, ZO-1 flat mounts); format: in vivo, mouse; details: WT mice
Experimental: Assessment of RPE degeneration. Subretinal injections were performed as previously described (Kaneko et al., 2011; Tarallo et al., 2012; Kerur et al., 2013; Fowler et al., 2014; Kim et al., 2014). Seven days after subretinal injection, RPE health was assessed by fundus photography and immunofluorescence staining of zonula occludens-1 (ZO-1) on RPE flat mounts (whole mount of posterior eye cup containing RPE and choroid layers). Mouse RPE/choroid flat mounts were fixed with 2% paraformaldehyde, stained with rabbit polyclonal antibodies against mouse ZO-1 (1:100; Invitrogen Corp. Carlsbad, Calif., United States of America) and visualized with Alexa-594 (Invitrogen Corp.). All images were obtained by microscopy (Model SP-5 (Leica Microsystems, Inc., Buffalo Grove, Ill., United States of America) or Nikon MR confocal microscope system (Nikon Instruments Inc. Melville, N.Y., United States of America). Imaging was performed by an operator blinded to the group assignments.
Quantification of RPE degeneration. Quantification of RPE degeneration was performed using two methodologies (binary assignment and cellular morphometry) as described previously (Kerur et al., 2018): Binary assignment (healthy versus unhealthy; Kerur et al., 2013; Fowler et al., 2014; Kim et al., 2014; Kerur et al., 2018) was independently performed by two blinded raters (inter-rater agreement=99.7%; Pearson r2=0.986, P<0.0001; Fleiss x=0.993, P<0.0001). Quantifying cellular morphometry for hexagonally packed cells was performed in semi-automated fashion by three masked graders by adapting our previous analysis of the planar architecture of corneal endothelial cell density (Ach et al., 2015), which resembles the RPE in its polygonal tessellation. Polymegethism (coefficient of variation of cell size), a prominent geometric feature of RPE cells in GA (Kaneko et al., 2011; Dridi et al., 2012; Grossniklaus et al., 2013; Ach et al., 2015), was quantified using the Konan Cell Check software (Ver. 4.0.1), a commercial U.S. FDA-cleared software that has been used for registration clinical trials, as previously described (Kerur et al., 2018).
Subretinal and intravitreous injections. Subretinal injections (1 μl for mice, 3 μl for rat) or intravitreous injections (0.5 μl for mice, 2 μl for rat) in mice or rat were performed using a 35-gauge needle (Ito Co. Fuji, Japan). In vivo transfection of Alu RNA or mutant Alu RNA (3.6-300 ng per eye); Alu complementary DNA (cDNA; 0.0036-90 ng per eye); Alu reverse sequence cDNA (3.6-90 ng per eye); or 7SL cDNA (3.6-90 ng per eye) was performed using 10% NEUROPORTER™ transfection reagent (Genlantis, San Diego, Calif., United States of America) as previously described (Kaneko et al., 2011; Tarallo et al., 2012). […]

L1 reverse transcriptase = L1 reverse transcriptase (Homo sapiens, UniProt O00370); details: Merluzzi et al., 1990; Dai et al., 2011; cited from earlier work
Chain of L1 reverse transcriptase (O00370 whole entry, looked up): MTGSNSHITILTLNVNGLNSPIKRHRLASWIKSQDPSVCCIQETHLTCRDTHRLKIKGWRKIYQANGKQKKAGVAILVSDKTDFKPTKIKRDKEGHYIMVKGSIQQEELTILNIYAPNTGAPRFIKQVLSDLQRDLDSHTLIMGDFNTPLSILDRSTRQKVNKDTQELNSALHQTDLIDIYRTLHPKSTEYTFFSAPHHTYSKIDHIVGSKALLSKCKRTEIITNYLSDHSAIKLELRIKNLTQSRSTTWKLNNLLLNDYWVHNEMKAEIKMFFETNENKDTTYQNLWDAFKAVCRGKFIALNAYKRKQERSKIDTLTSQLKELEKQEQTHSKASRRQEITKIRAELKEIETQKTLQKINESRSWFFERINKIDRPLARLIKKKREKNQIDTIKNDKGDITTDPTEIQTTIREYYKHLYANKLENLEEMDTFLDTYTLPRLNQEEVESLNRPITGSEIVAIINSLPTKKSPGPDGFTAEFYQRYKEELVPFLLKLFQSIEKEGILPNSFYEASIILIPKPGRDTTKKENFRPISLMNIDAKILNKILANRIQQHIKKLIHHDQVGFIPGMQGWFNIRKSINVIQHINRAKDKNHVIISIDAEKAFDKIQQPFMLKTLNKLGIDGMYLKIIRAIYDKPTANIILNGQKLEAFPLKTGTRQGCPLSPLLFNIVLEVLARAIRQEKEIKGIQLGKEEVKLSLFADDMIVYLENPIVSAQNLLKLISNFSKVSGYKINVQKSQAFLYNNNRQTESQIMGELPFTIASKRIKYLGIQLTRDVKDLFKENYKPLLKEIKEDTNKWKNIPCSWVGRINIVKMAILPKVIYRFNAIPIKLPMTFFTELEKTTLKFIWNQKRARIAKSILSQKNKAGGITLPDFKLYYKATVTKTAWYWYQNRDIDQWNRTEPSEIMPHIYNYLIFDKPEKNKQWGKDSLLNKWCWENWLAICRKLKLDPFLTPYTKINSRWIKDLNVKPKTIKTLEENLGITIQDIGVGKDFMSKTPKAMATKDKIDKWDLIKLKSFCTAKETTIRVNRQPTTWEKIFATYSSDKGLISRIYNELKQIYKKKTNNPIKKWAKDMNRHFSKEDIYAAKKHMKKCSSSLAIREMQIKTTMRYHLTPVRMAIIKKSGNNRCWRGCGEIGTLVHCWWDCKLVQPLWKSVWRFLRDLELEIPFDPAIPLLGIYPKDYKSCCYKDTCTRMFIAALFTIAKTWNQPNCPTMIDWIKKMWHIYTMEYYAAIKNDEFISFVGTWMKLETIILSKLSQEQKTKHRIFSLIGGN

[2] = intravitreous, high (500 μmol) doses

Molecule	Alu RNA-induced RPE degeneration [1, 2]	inhibition of L1 reverse transcriptase (L1 reverse transcriptase)	Alu RNA-induced RPE degeneration ([1]; subretinal cholesterol-conjugated L1 siRNA vs control siRNA)
CC(C)Nc1cccnc1N1CCN(C(=O)c2cc3cc(NS(C)(=O)=O)ccc3[nH]2)CC1 [DLV, delavirdine]	blocked Alu RNA toxicity; also recorded: inhibited	inhibit L1 reverse transcriptase at high doses	–
O=C1Nc2ccc(Cl)cc2[C@@](C#CC2CC2)(C(F)(F)F)O1 [EFV, efavirenz]	blocked Alu RNA toxicity; also recorded: inhibited	inhibit L1 reverse transcriptase at high doses	–
Cc1ccnc2c1NC(=O)c1cccnc1N2C1CC1 [NVP, nevirapine]	did not prevent Alu RNA-induced RPE degeneration at low or high doses	does not inhibit L1 reverse transcriptase	–
L1 siRNA: siRNA targeting L1; cholesterol-conjugated mouse L1 siRNA (SEQ ID NOs: 48 and 49) in vivo, human L1 siRNA sequences in human cells (chain 1 ACUAUUACUCUGAUACCTT; chain 2 UGUACUAAGGUCAAAUCTT; cholesterol conjugated, position not given here)	–	–	prevented Alu RNA-induced RPE degeneration in wild-type mice; also recorded: blocked Alu RNA induced RPE degeneration
